According to patent publication US20100292132A1, “USE OF INSULIN C-PEPTIDE, ALONE OR IN COMBINATION WITH GLP-1, AS A THERAPEUTIC AGENT” (priority 2007, published 2010):

What was measured:
HIV-1IIIB = test: HIV-1 antiviral assay (CPE reduction, MTS) in CEM-SS cells; conditions: for antiviral activity of positive control compounds: HIV-1IIIB in CEM-SS cells; for reduction of cytopathic effect (CPE) in HIV-1 infected CEM-SS cells: 10 micrograms per ml, HIV-1IIIB, 6 days post-infection
HCMV strain AD169 = test: HCMV plaque formation assay in MRC-5 cells; conditions: for inhibition of HCMV plaque formation as compared to the virus control experiment: 10 micrograms per ml, MRC-5 cells, 7-10 days
HUVEC = test: Endothelial tube formation assay; type: cell-based, human; conditions: 10 micrograms per ml; 20 hours
Experimental: The endothelial tube formation assay is based on the ability of endothelial cells to form three-dimensional capillary-like tubular structures when cultured on a gel of basement membrane extract. The endothelial tube formation assay represents a powerful model for studying inhibition and induction of angiogenesis. Pre-labeled HUVEC with Calcein AM were seeded in a 96-well culture plate coated with extracellular metrix (Chemicon international Cat. ECM625) and treated with test peptides—10 micrograms per ml—in full growth medium. Positive control wes vehicle only. The endothelial cells were allowed to form tubes foe 20 hours and were then examined under an inverted fluorescent microscope. Duplicate wells for each treatment were photographed and quantitatevily analyzed for an average tubule length using image analysis software ImageProPlus. Raw data were expressed as average tubule lenghs in pixels ± standard deviation. Statistic p values were computed using the Student's t-test.

[1] = tested on: Primary Human endothelial cells (HUVEC); test: Endothelial cell migration assay; type: cell-based; conditions: 10 micrograms per ml; 22 hours
Experimental: Primary Human endothelial cells (HUVEC) were seeded in insert chambers with 3 micrometer pore size of multi-transwell plate for 6 hours at 37° C. in Endothelial Cell Basal Medium (EBM) supplemented with 0.1% bovine serum albumin. Thereafter, designated concentration of testing peptides—10 micrograms per ml—was added in duplicate wells. The endothelia were allowed to migrate for 22 hours at 37° C., then, migrated cells were fixed and stained with Hoechst 33342 dye. Images of 3 fields per insert were taken and the number of migrated cells per field were quantified using the ImageProPlus software. Data were analyzed for the average number of the migrated cells and standard deviation of six data points for each treatment condition. Active test peptides against HUVEC migration was determined based on 50% inhibition of migrated cells as compared with the control. Statistic p values were computed using the Student's t-test.

murine spleen cells = test: Th1/Th2 cytokine profiling assay; type: cell-based, Balb/c mice; conditions: 10 micrograms per ml; Ovalbumin restimulation; 72 hours
Excerpt: The Balb/c mice (originated in 1923, it is a popular strain and is used in many different research disciplines. Also classified as an inbred from the production of 20 or more successive brother-sister matings, the Balb/c mouse is albino and small in size) were immunized on Days 1, 15, and 29 with Ovalbumin (Ovalbumin is the main protein found in egg white, commonly used to stimulate an immunological reaction in test animals) in PBS (5 micrograms/injection). On day 50, spleens of the mice were harvested (3 weeks after last boost with Ovalbumin). […] Thereafter, additional Ovalbumin was added to the cells at 10 micrograms/ml for in vitro restimulation of the cells. 72 hours later, cell supernatants were harvested and assayed using the Becton Dickinson Mouse Th1/Th2 Cytokine CBA Kit. This kit can be used to measure Interleukin-2 (IL-2), Interleukin-4 (IL-4), Interleukin-5 (IL-5), Interferon-γ(IFN-γ), and Tumor Necrosis Factor-α (TNF-α) protein levels in a single sample. The kit performance has been optimized for analysis of physiologically relevant concentrations (pg/ml levels) of specific cytokine proteins in tissue culture supernatants and serum samples.

[2] = tested on: hepatitis B virus (HBV) ayw strain; test: HBV replication assay in HepG2-2.2.15 cells (TaqMan PCR of secreted HBV DNA); type: cell-based; conditions: 10 micrograms per ml, six days

| Compound | antiviral activity of positive control compounds (HIV-1IIIB) | inhibition of the tube formation of human endothelial cells (HUVEC) | inhibition of the migration of human endothelial cells [1] | inhibition of HCMV plaque formation as compared to the virus control experiment (HCMV strain AD169) | reduction of cytopathic effect (CPE) in HIV-1 infected CEM-SS cells (HIV-1IIIB) | change of the production of IL-5 (murine spleen cells) | change of the production of TNF-alpha (murine spleen cells) | inhibition of HBV replication as compared to the virus control infection [2] | also measured |
| --- | --- | --- | --- | --- | --- | --- | --- | --- | --- |
| Cc1cn([C@H]2C[C@H](N=[N+]=[N-])[C@@H](CO)O2)c(=O)[nH]c1=O [AZT, reference compound] | expected levels of antiviral activity |  |  |  |  |  |  |  |  |
| Nc1nc(O)c2ncn(COC(CO)CO)c2n1 [Ganciclovir, reference compound] |  |  |  |  |  |  |  |  | antiviral activity of positive control compound (HCMV strain AD169; HCMV in MRC-5 cells): expected levels of antiviral activity |
| CC(C)(C)NC(=O)[C@@H]1CN(Cc2cccnc2)CCN1C[C@@H](O)C[C@@H](Cc1ccccc1)C(=O)N[C@H]1c2ccccc2C[C@H]1O [indinavir, reference compound] | expected levels of antiviral activity |  |  |  |  |  |  |  |  |
| Glu-Ala-Glu-Asp-Leu-Gln-Val-Gly-Gln-Val-Glu-Leu-Gly-Gly-Gly-Pro-Gly-Ala-Gly-Ser-Leu-Gln-Pro-Leu-Ala-Leu-Glu-Gly-Ser-Leu-Gln-OH (EAEDLQVGQVELGGGPGAGSLQPLALEGSLQ; printed: Glu-Ala-Glu-Asp-Leu-Gln-Val-Gly-Gln-Val-Glu-Leu-Gly-Gly-Gly-Pro-Gly-Ala-Gly-Ser-Leu-Gln-Pro-Leu-Ala-Leu-Glu-Gly-Ser-Leu-Gln-) [Peptide 1] |  | 19% | 29% | did not inhibit | 93.6% | did not significantly change | did not significantly change | 13.6% | change of the production of IFN-gamma (murine spleen cells): did not significantly change; induction of the production of IL-2 (murine spleen cells): 24.6%; induction of the production of IL-4 (murine spleen cells): 34.7% |
| His-Ala-Glu-Gly-Thr-Phe-Thr-Ser-Asp-Val-Ser-Ser-Tyr-Leu-Glu-Gly-Gln-Ala-Ala-Lys-Glu-Phe-Ile-Ala-Trp-Leu-Val-Lys-Gly-Arg-NH2 [Peptide 2] |  | 1% | 6% | 2.9% | 61.1% | did not significantly change | did not significantly change | 37.2% | decrease of the production of IFN-gamma (murine spleen cells): 39.7%; decrease of the production of IL-2 (murine spleen cells): 45.7%; decrease of the production of IL-4 (murine spleen cells): 70.9% |
